Test results as given in US12262710B2, “Fungicidal compounds” (SYNGENTA CROP PROTECTION AG, priority 2019, dated 2025).

Columns and labels:
[1] = tested on: Puccinia recondita f. sp. tritici; experiment: Puccinia recondita (brown rust), preventative, wheat leaf segments; assay type: in vivo; conditions: foliar, 192 h, 8 dpi, compared to untreated control
Description: (§1) Wheat leaf segments are placed on agar in multiwell plates (24-well format) and sprayed with test solutions. After drying, the leaf segments are inoculated with a spore suspension of the fungus. After appropriate incubation the activity of a compound is assessed 8 dpi (days after inoculation) as preventative fungicidal activity.

[2] = tested on: Phytophthora infestans; experiment: whole plant or invertebrate; assay type: in vivo; conditions: in Solanum lycopersicum, foliar, 96 h, read-out: control of Phytophthora infestans
[3] = tested on: Erysiphe graminis f. sp. tritici; experiment: Erysiphe graminis f. sp. tritici (wheat powdery mildew), wheat leaf segments, preventive; assay type: in vivo; conditions: Blumeria graminis, foliar, 168 h, 7 dpi, compared to untreated control
Description: Wheat leaf segments are placed on agar in multiwell plates (24-well format) and sprayed with test solutions. After drying, the leaf disks are inoculated with spores of the fungus. After appropriate incubation the activity of a compound is assessed 7 dpi (days post inoculation) as preventive fungicidal activity.

[4] = tested on: Mycosphaerella arachidis; experiment: Mycosphaerella arachidis syn. Cercospora arachidicola (brown leaf spot of peanut), liquid culture growth inhibition; assay type: cell-based; conditions: nutrient broth (PDB), approximately 5-6 days, photometric at 620 nm, compared to untreated control
Description: (§2) Conidia of the fungus from cryogenic storage were directly mixed into nutrient broth (PDB potato dextrose broth). A DMSO solution of the test compounds was placed into a microtiter plate (96-well format) and the nutrient broth containing the fungal spores was added to it. The test plates were incubated at 24° C. and the inhibition of growth was determined photometrically after approximately 5-6 5 days at 620 nm.

[5] = tested on: Monographella nivalis; experiment: Monographella nivalis syn. Microdochium nivale (snow mould, foot rot of cereals), liquid culture growth inhibition; assay type: cell-based; conditions: nutrient broth (PDB), 72 hrs, photometric at 620 nm, compared to untreated control
Description: as §2, with “72 hrs” for “approximately 5-6 5 days”, “nm. […] Cercospora arachidicola (Brown Leaf Spot of Peanut): […]” for “nm.”

[6] = tested on: Plasmopara viticola; experiment: Plasmopara viticola (downy mildew of grapevine), grape vine leaf disks, preventive; assay type: in vivo; conditions: foliar, 168 h, 7 dpi, compared to untreated control
Description: as §1, with “Grape vine” for “Wheat”, “disks” for “segments”, “7” for “8”, “preventive” for “preventative”

[7] = tested on: Glomerella lagenarium; experiment: Glomerella lagenarium syn. Colletotrichum lagenarium (anthracnose of cucurbits), liquid culture growth inhibition; assay type: cell-based; conditions: Colletotrichum orbiculare, nutrient broth (PDB), 72 hrs, photometric at 620 nm, compared to untreated control
Description: as §2, with “Glomerella lagenarium Syn. Colletotrichum lagenarium (Anthracnose of Cucurbits): Conidia” for “Conidia”, “72 hrs” for “approximately 5-6 5 days”, “nm. […]” for “nm.”

[8] = tested on: Pyricularia oryzae; experiment: whole plant or invertebrate; assay type: in vivo; conditions: foliar, 120 h, read-out: control of Pyricularia oryzae
[9] = tested on: Puccinia recondita f. sp. tritici; experiment: Puccinia recondita (brown rust), curative, wheat leaf segments; assay type: in vivo; conditions: foliar, 192 h, sprayed 1 day after inoculation, 8 dpi, compared to untreated control
Description: Wheat leaf segments are placed on agar in multiwell plates (24-well format). The leaf segments are inoculated with a spore suspension of the fungus and sprayed with test solutions 1 day after inoculation. After appropriate incubation the activity of a compound is assessed 8 dpi (days after inoculation) as curative fungicidal activity.

[10] = tested on: Phakopsora pachyrhizi; experiment: Phakopsora pachyrhizi (soybean rust), soybean leaf disks, preventive; assay type: in vivo; conditions: foliar, 288 h, approx. 12 dpi, compared to untreated control
Description: as §1, with “Soybean” for “Wheat”, “disks” for “segments”, “approx. 12” for “8”, “preventive” for “preventative”

[11] = tested on: Alternaria solani; experiment: Alternaria solani (early blight of tomatoes), tomato leaf disks; assay type: in vivo; conditions: foliar, inoculated 2 days after application, compared to untreated control
Description: Alternaria solani (Early Blight of Tomatoes) Tomato leaf disks are placed on agar in multiwell plates (24-well format) and sprayed with the formulated test compound diluted in water. The leaf disks are inoculated with a spore suspension of the fungus 2 days after application. The inoculated leaf disks are incubated at 23° C./21° C.

Row | Compound | pest or weed control at 200 ppm [1] | pest or weed control at 200 ppm [2] | pest or weed control at 200 ppm [3] | inhibition of growth at 20 ppm [4] | inhibition of growth at 20 ppm [5] | pest or weed control at 200 ppm [6] | inhibition of growth at 20 ppm [7] | pest or weed control at 200 ppm [8] | pest or weed control at 200 ppm [9] | pest or weed control at 60 ppm [10] | pest or weed control at 200 ppm [11]
1 | CO/C=C(\Oc1cc(C2CCC(C)(C)CC2)ccc1C)C(=O)OC [E.2, methyl (Z)-2-[5-(4,4-dimethylcyclohexyl)-2-methyl-phenoxy]-3-methoxy-prop-2-enoate] | ≥ 80% | ≥ 80% | ≥ 80% | ≥ 80% | ≥ 80% | ≥ 80% |  |  |  |  | 
2 | CO/C=C(\Oc1cc(C2CC(C)(C)CCC2=O)ccc1C)C(=O)OC (stereo not shown) [E.5, methyl (Z)-2-[5-(5,5-dimethyl-2-oxo-cyclohexyl)-2-methyl-phenoxy]-3-methoxy-prop-2-enoate] | ≥ 80% | ≥ 80% | ≥ 80% |  |  | ≥ 80% |  |  |  |  | 
3 | CO/C=C(\Oc1cc(C2CC2C2CC2)ccc1C)C(=O)OC (stereo not shown) [E.7, methyl (Z)-2-[5-(2-cyclopropylcyclopropyl)-2-methyl-phenoxy]-3-methoxy-prop-2-enoate] | ≥ 80% | ≥ 80% | ≥ 80% | ≥ 80% | ≥ 80% | ≥ 80% | ≥ 80% | ≥ 80% | ≥ 80% |  | 
4 | CO/C=C(\Oc1cc(C2CCCCC2)ccc1Cl)C(=O)OC [E.9, methyl (Z)-2-(2-chloro-5-cyclohexyl-phenoxy)-3-methoxy-prop-2-enoate] | ≥ 80% | ≥ 80% | ≥ 80% | ≥ 80% | ≥ 80% | ≥ 80% | ≥ 80% |  |  |  | 
5 | CO/C=C(\Oc1cc(C2CCC2)ccc1C)C(=O)OC [E.12, methyl (Z)-2-(5-cyclobuty1-2-methyl-phenoxy)-3-methoxy-prop-2-enoate] | ≥ 80% |  | ≥ 80% | ≥ 80% | ≥ 80% | ≥ 80% | ≥ 80% | ≥ 80% | ≥ 80% | ≥ 70% | 
6 | CO/C=C(\Oc1cc(C2CCC(=NOC)CC2)ccc1C)C(=O)OC (stereo not shown) [E.20, methyl (Z)-3-methoxy-2-[5-(4-methoxyimino-cyclohexyl)-2-methyl-phenoxy]prop-2-enoate] | ≥ 80% |  | ≥ 80% | ≥ 80% | ≥ 80% | ≥ 80% | ≥ 80% | ≥ 80% | ≥ 80% | ≥ 70% | ≥ 80%
7 | CCON=C1CCC(c2ccc(C)c(O/C(=C\OC)C(=O)OC)c2)CC1 (stereo not shown) [E.21, methyl (Z)-2-[5-(4-ethoxyiminocyclohexyl)-2-methyl-phenoxy]-3-methoxy-prop-2-enoate] | ≥ 80% |  | ≥ 80% | ≥ 80% | ≥ 80% | ≥ 80% | ≥ 80% | ≥ 80% | ≥ 80% | ≥ 70% | 
8 | CO/C=C(\Oc1cc(C2CCC(C(F)F)CC2)ccc1C)C(=O)OC (stereo not shown) [E.22, methyl (Z)-2-[5-[4-(difluoromethyl)cyclohexyl]-2-methyl-phenoxy]-3-methoxy-prop-2-enoate] | ≥ 80% | ≥ 80% | ≥ 80% | ≥ 80% | ≥ 80% | ≥ 80% | ≥ 80% |  |  |  | ≥ 80%
9 | CO/C=C(\Oc1cc(C2CCC(OC(F)F)CC2)ccc1C)C(=O)OC (stereo not shown) [E.23, methyl (Z)-2-[5-[4-(difluoromethoxy)cyclohexyl]-2-methyl-phenoxy]-3-methoxy-prop-2-enoate] | ≥ 80% |  | ≥ 80% | ≥ 80% | ≥ 80% | ≥ 80% | ≥ 80% | ≥ 80% |  |  | ≥ 80%
10 | CO/C=C(\Oc1cc(C2=CC(C)(C)CCC2=O)ccc1C)C(=O)OC [F.1, methyl (Z)-2-[5-(3,3-dimethyl-6-oxo-cyclohexen-1-yl)-2-methyl-phenoxy]-3-methoxy-prop-2-enoate] | ≥ 80% |  | ≥ 80% |  |  | ≥ 80% | ≥ 80% | ≥ 80% |  |  | ≥ 80%
11 | CO/C=C(\Oc1cc(C2=CCCCC2)ccc1C)C(=O)OC [F.2, methyl (Z)-2-[5-(cyclohexen-1-yl)-2-methyl-phenoxy]-3-methoxy-prop-2-enoate] | ≥ 80% |  | ≥ 80% |  |  | ≥ 80% | ≥ 80% |  | ≥ 80% | ≥ 70% | 
12 | CO/C=C(\Oc1cc(C2=CCC(F)(F)CC2)ccc1C)C(=O)OC [F.3, methyl (Z)-2-[5-(4,4-difluorocyclohexen-1-yl)-2-methyl-phenoxy]-3-methoxy-prop-2-enoate] | ≥ 80% |  | ≥ 80% | ≥ 80% | ≥ 80% | ≥ 80% | ≥ 80% |  |  | ≥ 70% | 
13 | CO/C=C(\Oc1cc(C2=CCCC2)ccc1C)C(=O)OC [F.4, methyl (Z)-2-[5-(cyclopenten-l-yI)-2-methyl-phenoxy]-3-methoxy-prop-2-enoate] | ≥ 80% |  | ≥ 80% | ≥ 80% | ≥ 80% | ≥ 80% | ≥ 80% |  |  | ≥ 70% | 
14 | CO/C=C(\Oc1cc(C2=CCCCC2)c(F)cc1C)C(=O)OC [F.6, methyl (Z)-2-[5-(cyclohexen-1-yl)-4-fluoro-2-methyl-phenoxy]-3-methoxy-prop-2-enoate] | ≥ 80% |  | ≥ 80% | ≥ 80% | ≥ 80% | ≥ 80% | ≥ 80% |  | ≥ 80% | ≥ 70% | 
15 | CO/C=C(\Oc1cc(C2=CCC(C(F)F)CC2)ccc1C)C(=O)OC (stereo not shown) [F.7, methyl (Z)-2-[5-[4-(difluoromethyl)cyclohexen-1-yl]-2-methyl-phenoxy]-3-methoxy-prop-2-enoate] | ≥ 80% |  | ≥ 80% | ≥ 80% | ≥ 80% | ≥ 80% | ≥ 80% |  | ≥ 80% |  | ≥ 80%
